In assay [1] the target is T1, Muscarinic acetylcholine receptor M1 (Homo sapiens, UniProt P11229).
T1 sequence (P11229 whole entry): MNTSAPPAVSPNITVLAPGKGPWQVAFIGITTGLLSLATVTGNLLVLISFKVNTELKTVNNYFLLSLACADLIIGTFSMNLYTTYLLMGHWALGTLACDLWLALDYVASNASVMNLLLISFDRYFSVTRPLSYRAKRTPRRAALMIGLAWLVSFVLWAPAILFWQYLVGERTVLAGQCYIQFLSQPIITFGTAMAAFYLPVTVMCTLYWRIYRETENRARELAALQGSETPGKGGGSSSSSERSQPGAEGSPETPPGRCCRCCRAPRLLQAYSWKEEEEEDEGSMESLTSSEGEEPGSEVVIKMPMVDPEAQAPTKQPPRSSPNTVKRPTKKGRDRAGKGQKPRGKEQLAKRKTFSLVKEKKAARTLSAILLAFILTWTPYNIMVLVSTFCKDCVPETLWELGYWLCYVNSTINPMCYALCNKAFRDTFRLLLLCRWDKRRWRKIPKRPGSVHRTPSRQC
Nature of the assay: Positive allosteric modulation of human muscarinic M1 receptor.

In assay [2] the target is T2, Muscarinic acetylcholine receptor M1 (Homo sapiens) (UniProt P11229).
T2 sequence (whole entry): T1 sequence (P11229 whole entry)
Nature of the assay: Positive allosteric modulation of human muscarinic M1 receptor relative to acetylcholine.

Assay [3] concerns the target T2, Muscarinic acetylcholine receptor M1 (Homo sapiens). Nature of the assay: Positive allosteric modulation of human muscarinic M1 receptor assessed as leftward fold shift of acetylcholine-induced response at 30 uM relative to acetylcholine.
For assay [4] the target is unchanged. Nature of the assay: Positive allosteric modulation of human muscarinic M1 receptor at 30 uM.

The structures appear in SMILES notation. The source made the active and inactive calls. The calls are words filed in the database; no cut-off is given here. Some results are limits rather than exact numbers.

Broadly, the pEC50 is −log10 of the EC50, conventionally taken in molar units. Read a high pEC50 as a low EC50. By Emax is commonly meant the size of the effect at its maximum, as opposed to the concentration needed. Usually EC50 stands for the midpoint of the concentration-response curve.

The compound `Cn1cc(-c2ccc(CN3C(=O)C(=O)c4ccccc43)c(F)c2)cn1` returned a pEC50 in assay [1] of 6.22. Besides, the Emax in assay [2] came out at 45%. Besides, the fold change (FC) in assay [3] was found to be 2.7. Consider `Cc1nn(C)cc1-c1ccc(CN2C(=O)C3(CCN(C4CCCC4)C3)c3ccccc32)c(F)c1` (stereo not drawn), for which, in assay [1], the response was half-maximal at 3 µM (EC50). Moreover, the maximum response (Emax) in assay [2] was found to be 41%. Take `Cn1cc(-c2ccc(CN3C(=O)C4(CCN(C5CCCC5)C4)c4ccccc43)cc2F)cn1` (stereo not drawn): a half-maximal response in assay [1] (EC50) required 2 µM. Further, in assay [2], the Emax was determined as 28%.

In turn, `Cn1cc(-c2cc(F)c(CN3C(=O)C4(CCN(C5CCCC5)C4)c4ccccc43)c(F)c2)cn1` (stereo not drawn) returned an EC50 in assay [1] of 2.6 µM. The compound further came in with a maximal response (Emax) in assay [2] of 66%. `Cn1cc(-c2ccc(CN3C(=O)C4(CCN(C5CCCC5)C4)c4ccccc43)c(F)c2F)cn1` (stereo not drawn) returned a concentration giving a half-maximal response (EC50) in assay [1] greater than 10 µM. This compound gave an Emax in assay [2] of 43%. As to `Cn1cc(-c2cc(F)c(CN3C(=O)C4(CCN(C5CCCC5)C4)c4ccccc43)cc2F)cn1` (stereo not drawn), the half-maximal effective concentration (EC50) in assay [1] came out at 4.1 µM. Also, the Emax in assay [2] is 51%.

Turning to `Cn1cc(-c2ccc(CN3C(=O)C4(CCN(C5CCCC5)C4)c4ccccc43)cc2)cn1` (stereo not drawn), a half-maximal response in assay [1] (EC50) required 1.8 µM. In assay [2], the Emax stood at 44%. On to `CN1CCC2(CCN(Cc3ccc(-c4cnn(C)c4)cc3F)C2=O)C1` (stereo not drawn), for which the half-maximal effective concentration (EC50) in assay [1] is greater than 10 µM. Further, the Emax in assay [2] came out at 28%. On the same counts, the results for `CN1CCC2(CC1)C(=O)N(Cc1ccc(-c3cnn(C)c3)cc1F)c1ccccc12` are 3.8 µM and 49%. On the same counts, the results for `Cn1cc(-c2ccc(CN3C(=O)C4(CCNCC4)c4ccccc43)c(F)c2)cn1` are greater than 10 µM and 29%. In assay [1], `Cn1cc(-c2ccc(CN3C(=O)C4(OCCO4)c4ccccc43)c(F)c2)cn1` had an EC50 of 2 µM. The same compound showed an Emax in assay [2] of 62%. Further, the fold change (FC) in assay [3] stood at 27. With `Cn1cc(-c2ccc(CN3CC4(OCCO4)c4ccccc43)c(F)c2)cn1`, the EC50 in assay [1] was greater than 10 µM. In assay [2], this compound came in with an Emax of 43%. Regarding `Cn1cc(-c2ccc(CN3C(=O)C4(CCCO4)c4ccccc43)cc2)cn1` (stereo not drawn), the EC50 in assay [1] is greater than 10 µM. This compound also came in with an Emax in assay [2] of 43%.

In turn, `CN1CCCC12C(=O)N(Cc1ccc(-c3cnn(C)c3)cc1)c1ccccc12` (stereo not drawn) showed an EC50 in assay [1] greater than 10 µM. Besides, the Emax in assay [2] worked out at 53%.

On to `CN1CCCC12C(=O)N(Cc1ccc(Br)cc1)c1ccccc12` (stereo not drawn), for which, in assay [4], the outcome was inactive. Consider `C[Si](C)(C)C1COC2(C1)C(=O)N(Cc1ccc(Br)cc1)c1ccccc12` (stereo not drawn), for which the result in assay [4] was inactive. Same read-out and setting: the same measure for `Cc1c(-c2ccc(CN3C(=O)C4(CCN(C5CCCC5)C4)c4ccccc43)c(F)c2)cnn1C` (stereo not drawn): “inactive”. Same read-out and setting: to `Cc1nn(C)c(C)c1-c1ccc(CN2C(=O)C3(CCN(C4CCCC4)C3)c3ccccc32)c(F)c1` (stereo not drawn) belongs “inactive”; to `Cn1cc(-c2ccc(CN3C(=O)C4(CCN(C5CCCC5)C4)c4ccccc43)c(F)c2)c(C(F)(F)F)n1` (stereo not drawn), “inactive”. Consider `Cn1cc(-c2ccc(CN3C(=O)C4(CCNC4)c4ccccc43)c(F)c2)cn1` (stereo not drawn), for which the outcome in assay [4] was inactive. As to `O=C1N(Cc2ccc(Br)cc2)c2ccccc2C12CCCN2` (stereo not drawn), the result in assay [4] was inactive.

Consider `O=C1N(Cc2ccc(Br)cc2)c2ccccc2C12CCCO2` (stereo not drawn), for which the outcome in assay [4] was inactive. Consider `Cn1cc(-c2ccc(CN3C(=O)C4(CCN(c5ncccn5)C4)c4ccccc43)c(F)c2)cn1` (racemic), for which the response in assay [1] was half-maximal at 2.5 µM (EC50). For the same compound, the Emax in assay [2] came out at 64%. In assay [3], the fold change (FC) is 17.4. On the same counts, the results for `CCN1CCC2(C1)C(=O)N(Cc1ccc(-c3cnn(C)c3)cc1F)c1ccccc12` (racemic) are 3.2 µM, 59% and 8.3. On the same counts, the results for `Cn1cc(-c2ccc(CN3C(=O)C4(CCN(CCF)C4)c4ccccc43)c(F)c2)cn1` (racemic) are 4.1 µM, 60% and 13.5.

With `Cn1cc(-c2ccc(CN3C(=O)C4(CCN(CC(F)F)C4)c4ccccc43)c(F)c2)cn1` (racemic), in assay [1], the EC50 is greater than 10 µM. This compound also showed a maximum response (Emax) in assay [2] of 52%. For the same compound, the fold change (FC) in assay [3] stood at 5.9. The compound `CC(=O)N1CCC2(C1)C(=O)N(Cc1ccc(-c3cnn(C)c3)cc1F)c1ccccc12` (racemic) had a concentration giving a half-maximal response (EC50) in assay [1] greater than 10 µM. In assay [2], the Emax was found to be 41%. In turn, `Cn1cc(-c2ccc(CN3C(=O)C4(CCN(C(=O)C5CCC5)C4)c4ccccc43)c(F)c2)cn1` (racemic) had an EC50 in assay [1] of 6.3 µM. In assay [2], the Emax was found to be 45%. For the compound `Cn1cc(-c2ccc(CN3C(=O)C4(CCN(C(=O)C5CCCCC5)C4)c4ccccc43)c(F)c2)cn1` (racemic), the EC50 in assay [1] worked out at 5 µM. Besides, the Emax in assay [2] was found to be 50%. On the same counts, the results for `Cn1cc(-c2ccc(CN3C(=O)C4(CCN(S(C)(=O)=O)C4)c4ccccc43)c(F)c2)cn1` (racemic) are greater than 10 µM and 41%. In assay [1], `Cn1cc(-c2ccc(CN3C(=O)C4(CCN(C5CCC5)C4)c4ccccc43)c(F)c2)cn1` (racemic) showed a concentration giving a half-maximal response (EC50) greater than 10 µM. Further, in assay [2], the Emax was found to be 48%. Regarding `Cn1cc(-c2ccc(CN3C(=O)C4(CCN(C5CCCC5)C4)c4ccccc43)c(F)c2)cn1` (racemic) [listing 1 of 2 here], the EC50 in assay [1] worked out at 3.1 µM. That is a single-digit micromolar value. Take `Cn1cc(-c2ccc(CN3C(=O)C4(CCN(C5CCCCC5)C4)c4ccccc43)c(F)c2)cn1` (racemic): in assay [1], the EC50 is 5.2 µM. In addition, in assay [2], the maximum response (Emax) worked out at 60%. On to `Cn1cc(-c2ccc(CN3C(=O)C4(CCN(C5CCCCCC5)C4)c4ccccc43)c(F)c2)cn1` (racemic), for which, in assay [1], the half-maximal effective concentration (EC50) worked out at 7.5 µM. In assay [2], this compound had an Emax of 50%. On the same counts, the results for `CC(C)N1CCC2(C1)C(=O)N(Cc1ccc(-c3cnn(C)c3)cc1F)c1ccccc12` (racemic) are greater than 10 µM and 30%. Take `Cn1cc(-c2ccc(CN3C(=O)C4(CCN(C(=O)OC(C)(C)C)C4)c4ccccc43)c(F)c2)cn1` (racemic): the outcome in assay [4] was inactive. In turn, `Cn1cc(-c2ccc(CN3C(=O)C4(CCN(C5CCCC5)C4)c4ccccc43)c(F)c2)cn1` (racemic) [listing 2 of 2 here] had an Emax in assay [2] of 57%. Regarding `Cn1cc(-c2ccc(CN3C(=O)C4(CCN(CC(F)(F)F)C4)c4ccccc43)c(F)c2)cn1` (racemic), the result in assay [4] was inactive. `Cn1cc(-c2ccc(CN3C(=O)C4(CCN(c5ccccc5)C4)c4ccccc43)c(F)c2)cn1` (racemic): the outcome in assay [4] was inactive. The compound `CN1CCC2(C1)C(=O)N(Cc1ccc(-c3cnn(C)c3)cc1F)c1ccccc12` (single isomer, unassigned) [listing 1 of 2 here] had an EC50 in assay [1] of 2.9 µM.

On to `CN1CCC2(C1)C(=O)N(Cc1ccc(-c3cnn(C)c3)cc1F)c1ccccc12` (single isomer, unassigned) [listing 2 of 2 here], for which the Emax in assay [2] came out at 50%. The fold change (FC) in assay [3] was 7.2.

Take `Cn1cc(-c2ccc(CN3C(=O)C4(CCN(C5CCCC5)C4)c4ccccc43)c(F)c2)cn1` (single isomer, unassigned; 19g) [listing 1 of 2 here]: it took 1.6 µM to reach a half-maximal effect in assay [1] (EC50). The compound `Cn1cc(-c2ccc(CN3C(=O)C4(CCN(C5CCCC5)C4)c4ccccc43)c(F)c2)cn1` (single isomer, unassigned; 19g) [listing 2 of 2 here] registered an Emax in assay [2] of 69%. Also, in assay [3], the fold change (FC) was 28. `Cn1cc(-c2ccc(CN3C(=O)C4(CCN(C5CCCC5)C4)c4ccccc43)c(F)c2)cn1` (single isomer, unassigned; 19h) returned an Emax in assay [2] of 33%. In the case of `CN1CCC2(C1)C(=O)N(Cc1ccc(-c3cnn(C)c3)cc1F)c1ccccc12` (stereo in doubt; 18d) [listing 1 of 2 here], the EC50 in assay [1] was determined as 3.2 µM.

On to `CN1CCC2(C1)C(=O)N(Cc1ccc(-c3cnn(C)c3)cc1F)c1ccccc12` (stereo in doubt; 18d) [listing 2 of 2 here], for which the Emax in assay [2] is 65%. `CN1CCC2(C1)C(=O)N(Cc1ccc(-c3cnn(C)c3)cc1F)c1ccccc12` (stereo in doubt; 19a) [listing 1 of 2 here]: the 50% effective concentration (EC50) in assay [1] worked out at 2.9 µM. As to `CN1CCC2(C1)C(=O)N(Cc1ccc(-c3cnn(C)c3)cc1F)c1ccccc12` (stereo in doubt; 19a) [listing 2 of 2 here], in assay [2], the Emax was 67%. The fold change (FC) in assay [3] stood at 21.

The values above are taken from ChEMBL document CHEMBL2331354, “Spirocyclic replacements for the isatin in the highly selective, muscarinic M1 PAM ML137: the continued optimization of an MLPCN probe molecule” (Bioorg Med Chem Lett, 2013).
